Like-named read-outs stand apart in the source and are kept apart here.
How the values were obtained:
[1] = target: FGFR1 (Homo sapiens (Human), UniProt P11362); assay: FGFR biochemical assay (LanthaScreen TR-FRET kinase assay), FGFR1
Procedure: (§1) Convert Ratio values to percent inhibition values (Percent inhibition=(max−sample Ratio)/(max−min)*100) where “min” means the Ratio of no enzyme control and “max” means the Ratio of DMSO control. • Data are analyzed and curve fitting is performed by XLFit Excel add-in version 5.4.0.8. The IC50 calculation equation is: Y=Bottom+(Top-Bottom)/(1+ (IC50/X)^HillSlope.

[2] = target: FGFR2 (Homo sapiens (Human), UniProt P21802); assay: FGFR biochemical assay (LanthaScreen TR-FRET kinase assay), FGFR2
Procedure: as §1

[3] = target: FGFR3 (Homo sapiens (Human), UniProt P22607); assay: FGFR biochemical assay (LanthaScreen TR-FRET kinase assay), FGFR3
Procedure: as §1

[4] = target: FGFR4 (Homo sapiens (Human), UniProt P22455); assay: FGFR biochemical assay (LanthaScreen TR-FRET kinase assay), FGFR4
Procedure: as §1

[5] = read-out: FGFR2 IC50, incubation with enzyme at room temperature for 10 minutes before substrate, ATP 22 μM, FGFR2 0.01 nM

Sequence of FGFR3 (P22607 23-806): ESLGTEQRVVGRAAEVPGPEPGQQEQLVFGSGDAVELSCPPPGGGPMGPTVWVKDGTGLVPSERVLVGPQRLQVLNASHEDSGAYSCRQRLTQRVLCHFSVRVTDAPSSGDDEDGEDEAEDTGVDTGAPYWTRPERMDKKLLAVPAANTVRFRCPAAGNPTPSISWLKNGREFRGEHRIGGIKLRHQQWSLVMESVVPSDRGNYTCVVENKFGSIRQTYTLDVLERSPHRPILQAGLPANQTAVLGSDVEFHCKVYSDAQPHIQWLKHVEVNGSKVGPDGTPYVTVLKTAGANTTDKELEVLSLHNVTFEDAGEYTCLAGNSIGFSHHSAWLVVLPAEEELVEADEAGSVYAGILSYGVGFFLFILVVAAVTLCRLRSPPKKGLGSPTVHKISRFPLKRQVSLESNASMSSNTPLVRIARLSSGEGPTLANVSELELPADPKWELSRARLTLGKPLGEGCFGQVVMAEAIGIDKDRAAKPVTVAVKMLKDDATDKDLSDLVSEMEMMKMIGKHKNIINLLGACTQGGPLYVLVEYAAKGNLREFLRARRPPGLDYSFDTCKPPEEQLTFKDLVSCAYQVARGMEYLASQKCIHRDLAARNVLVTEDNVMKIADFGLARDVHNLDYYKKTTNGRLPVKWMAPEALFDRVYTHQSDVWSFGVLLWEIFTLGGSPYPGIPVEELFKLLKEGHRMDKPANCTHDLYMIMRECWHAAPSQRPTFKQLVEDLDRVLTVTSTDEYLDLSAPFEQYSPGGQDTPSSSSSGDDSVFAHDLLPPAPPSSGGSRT
Sequence of FGFR1 (P11362 22-822): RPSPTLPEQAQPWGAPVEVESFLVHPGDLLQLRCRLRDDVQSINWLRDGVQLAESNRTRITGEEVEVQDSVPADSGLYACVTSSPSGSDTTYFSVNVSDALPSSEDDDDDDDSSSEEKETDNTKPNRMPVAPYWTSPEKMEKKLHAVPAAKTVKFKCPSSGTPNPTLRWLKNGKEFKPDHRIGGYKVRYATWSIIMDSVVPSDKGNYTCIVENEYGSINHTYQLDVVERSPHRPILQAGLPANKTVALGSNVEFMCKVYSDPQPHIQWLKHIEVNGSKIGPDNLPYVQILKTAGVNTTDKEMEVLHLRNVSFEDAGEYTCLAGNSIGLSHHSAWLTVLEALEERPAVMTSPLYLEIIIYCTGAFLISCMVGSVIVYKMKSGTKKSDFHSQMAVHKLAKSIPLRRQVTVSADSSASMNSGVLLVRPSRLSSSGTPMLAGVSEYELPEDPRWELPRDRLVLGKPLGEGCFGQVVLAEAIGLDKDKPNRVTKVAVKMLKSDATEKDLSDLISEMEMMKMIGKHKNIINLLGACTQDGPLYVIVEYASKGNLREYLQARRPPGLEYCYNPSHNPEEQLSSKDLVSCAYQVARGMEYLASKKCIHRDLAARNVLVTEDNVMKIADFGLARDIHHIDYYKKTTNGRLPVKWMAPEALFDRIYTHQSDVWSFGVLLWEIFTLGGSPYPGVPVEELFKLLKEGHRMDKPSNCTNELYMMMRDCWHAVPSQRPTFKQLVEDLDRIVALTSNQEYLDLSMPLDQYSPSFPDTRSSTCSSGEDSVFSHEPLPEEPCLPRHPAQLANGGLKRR
Sequence of FGFR4 (P22455 22-802): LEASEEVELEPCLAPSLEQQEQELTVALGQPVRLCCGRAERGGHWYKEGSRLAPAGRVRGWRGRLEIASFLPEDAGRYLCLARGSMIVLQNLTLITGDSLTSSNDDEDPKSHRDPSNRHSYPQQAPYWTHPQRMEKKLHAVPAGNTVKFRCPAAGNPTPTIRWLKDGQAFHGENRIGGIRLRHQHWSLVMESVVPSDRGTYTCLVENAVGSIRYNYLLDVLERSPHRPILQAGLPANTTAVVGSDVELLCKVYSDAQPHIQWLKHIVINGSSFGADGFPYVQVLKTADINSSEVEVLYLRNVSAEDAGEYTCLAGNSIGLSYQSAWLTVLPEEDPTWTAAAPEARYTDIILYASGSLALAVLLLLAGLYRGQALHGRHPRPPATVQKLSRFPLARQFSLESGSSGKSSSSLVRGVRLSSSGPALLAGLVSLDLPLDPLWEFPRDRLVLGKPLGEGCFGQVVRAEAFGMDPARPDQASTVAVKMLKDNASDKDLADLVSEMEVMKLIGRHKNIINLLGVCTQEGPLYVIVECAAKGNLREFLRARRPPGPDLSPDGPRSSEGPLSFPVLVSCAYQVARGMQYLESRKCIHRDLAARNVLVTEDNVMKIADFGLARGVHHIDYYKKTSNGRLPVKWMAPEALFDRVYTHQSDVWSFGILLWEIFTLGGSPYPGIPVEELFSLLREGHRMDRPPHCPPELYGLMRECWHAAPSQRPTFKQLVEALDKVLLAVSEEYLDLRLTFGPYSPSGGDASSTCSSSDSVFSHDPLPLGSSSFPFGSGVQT
Sequence of FGFR2 (P21802 22-821): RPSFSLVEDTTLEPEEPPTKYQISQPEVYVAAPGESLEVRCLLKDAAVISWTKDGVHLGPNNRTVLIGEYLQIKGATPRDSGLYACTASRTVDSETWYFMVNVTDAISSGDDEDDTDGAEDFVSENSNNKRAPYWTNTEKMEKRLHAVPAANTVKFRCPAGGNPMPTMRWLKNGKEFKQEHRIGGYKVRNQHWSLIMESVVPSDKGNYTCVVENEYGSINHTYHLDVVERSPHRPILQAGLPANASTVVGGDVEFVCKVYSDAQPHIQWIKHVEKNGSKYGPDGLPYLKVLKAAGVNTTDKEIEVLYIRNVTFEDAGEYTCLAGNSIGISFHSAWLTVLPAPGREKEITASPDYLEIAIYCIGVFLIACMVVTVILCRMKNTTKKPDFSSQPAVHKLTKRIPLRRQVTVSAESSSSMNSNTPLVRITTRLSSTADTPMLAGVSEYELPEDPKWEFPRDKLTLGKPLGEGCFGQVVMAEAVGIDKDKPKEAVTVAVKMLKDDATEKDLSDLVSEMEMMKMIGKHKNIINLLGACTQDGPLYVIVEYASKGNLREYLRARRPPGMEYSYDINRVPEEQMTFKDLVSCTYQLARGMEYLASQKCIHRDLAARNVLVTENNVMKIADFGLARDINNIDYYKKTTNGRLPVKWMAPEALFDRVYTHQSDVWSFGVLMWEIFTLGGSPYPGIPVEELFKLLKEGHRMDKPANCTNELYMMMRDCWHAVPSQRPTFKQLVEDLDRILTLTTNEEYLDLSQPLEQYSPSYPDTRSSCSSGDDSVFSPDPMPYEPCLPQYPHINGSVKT

SMILES	IC50 [1] [nM]	IC50 [2, 5] [nM]	IC50 [3] [nM]	IC50 [4] [nM]	IC50 [2] [nM]	IC50 ([4]; read-out: FGFR4 IC50, incubation with enzyme at room temperature for 10 minutes before substrate, ATP 238 μM, FGFR4 1 nM) [nM]
C=CC(=O)Nc1ccc(-c2c(-c3ccc(Oc4cccc(C)n4)cc3)c(C(N)=O)c3cncc(C)n23)cc1 [Example 5, 6-(4-acrylamidophenyl)-4-methyl-7-(4-((6-methylpyridin-2-yl)oxy)phenyl)pyrrolo[1,2-a]pyrazine-8-carboxamide]	100 to 1000	< 10	10 to 100	100 to 1000		
C=CC(=O)Nc1ccc(-c2c(-c3ccc(Oc4cccc(C)n4)cc3)c(C(N)=O)c3cnc(C)cn23)cc1 [Example 7, 6-(4-acrylamidophenyl)-3-methyl-7-(4-((6-methylpyridin-2-yl)oxy)phenyl)pyrrolo[1,2-a]pyrazine-8-carboxamide]	100 to 1000	< 10	10 to 100	100 to 1000		
C=CC(=O)Nc1ccc(-c2c(-c3ccc(Oc4cccc(C)n4)cc3)c(C(N)=O)c3cnc(CO)cn23)cc1 [Example 11, 6-(4-acrylamidophenyl)-3-(hydroxymethyl)-7-(4-((6-methylpyridin-2-yl)oxy)phenyl)pyrrolo[1,2-a]pyrazine-8-carboxamide]	100 to 1000	< 10	10 to 100	100 to 1000		
C=CC(=O)Nc1ccc(-c2c(-c3ccc(Oc4cccc(C)n4)cc3)c(C(N)=O)c3n2CCN(C)C3)cc1 [Example 13, 6-(4-acrylamidophenyl)-2-methyl-7-(4-((6-methylpyridin-2-yl)oxy)phenyl)-1,2,3,4-tetrahydropyrrolo[1,2-a]pyrazine-8-carboxamide]	100 to 1000		100 to 1000		10 to 100	> 1000
CC#CC(=O)Nc1ccc(-c2c(-c3ccc(C(=O)NCC4(F)COC4)cc3)c(C(N)=O)c3cnc(C)cn23)cc1 [Example 65, 6-(4-(but-2-ynamido)phenyl)-7-(4-(((3-fluorooxetan-3-yl)methyl)carbamoyl)phenyl)-3-methylpyrrolo[1,2-a]pyrazine-8-carboxamide]	100 to 1000		100 to 1000		10 to 100	
C=C(F)C(=O)Nc1ccc(-c2c(-c3cccc(C(=O)NC)c3)c(C(N)=O)c3cnc(C)cn23)c(F)c1 [Example 75, 6-(2-fluoro-4-(2-fluoroacrylamido)phenyl)-3-methyl-7-(3-(methylcarbamoyl)phenyl)pyrrolo[1,2-a]pyrazine-8-carboxamide]	100 to 1000		100 to 1000		100 to 1000	
C=CC(=O)Nc1ccc(-c2c(-c3ccc(Oc4cccc(C)n4)cc3)c(C(N)=O)c3ccnc(C)n23)cc1 [Example 84, 7-(4-acrylamidophenyl)-1-methyl-6-(4-((6-methylpyridin-2-yl)oxy)phenyl)pyrrolo[1,2-c]pyrimidine-5-carboxamide]	100 to 1000	< 10	10 to 100			

From patent US20250382297A1, “INHIBITORS OF FGFR2 AND FGFR3 AND USES THEREOF” (Insilico Medicine IP Limited, priority 2022, published 2025)
